Paper PMC3834762 (British Journal of Pharmacology, 2013)
Residue numbers refer to the chain shown, from its start.

Columns and labels:
Assay type in all cases: cell-based
5‐HT3A receptors = biological target: T1, 5‐HT3A receptors (Homo sapiens, UniProt P46098); assay: two‐electrode voltage clamp, wild type 5‐HT3A receptors in Xenopus oocytes
T1 sequence (P46098 24-478): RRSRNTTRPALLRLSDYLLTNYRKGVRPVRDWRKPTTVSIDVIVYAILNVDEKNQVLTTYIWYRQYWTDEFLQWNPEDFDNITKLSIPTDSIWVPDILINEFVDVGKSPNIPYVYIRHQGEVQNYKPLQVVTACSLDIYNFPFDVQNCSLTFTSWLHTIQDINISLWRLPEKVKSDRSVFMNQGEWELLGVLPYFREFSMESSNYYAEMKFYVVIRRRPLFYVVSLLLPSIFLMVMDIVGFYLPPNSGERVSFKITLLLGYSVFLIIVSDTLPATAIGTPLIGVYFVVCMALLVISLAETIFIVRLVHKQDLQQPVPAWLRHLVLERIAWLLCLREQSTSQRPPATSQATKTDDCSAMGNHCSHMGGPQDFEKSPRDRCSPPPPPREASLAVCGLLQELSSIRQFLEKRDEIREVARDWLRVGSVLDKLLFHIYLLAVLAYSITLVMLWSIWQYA

5‐HT3AT6'S receptors = biological target: T2, 5‐HT3AT6'S receptors (Homo sapiens, UniProt P46098, T279S); assay: two‐electrode voltage clamp, 5‐HT3AT6'S mutant receptors in Xenopus oocytes; conditions: maximal current amplitude for the test ligand compared to 5‐HT
T2 sequence (P46098 24-478 T279S): T1 sequence (P46098 24-478) with T256S

5‐HT3AB receptors = biological target: T3, 5‐HT3AB receptors (Homo sapiens, UniProt O95264+P46098); assay: two‐electrode voltage clamp, wild type 5‐HT3AB receptors in Xenopus oocytes
T3 sequence (P46098 24-478): T1 sequence (P46098 24-478)
T3 sequence (O95264 22-441): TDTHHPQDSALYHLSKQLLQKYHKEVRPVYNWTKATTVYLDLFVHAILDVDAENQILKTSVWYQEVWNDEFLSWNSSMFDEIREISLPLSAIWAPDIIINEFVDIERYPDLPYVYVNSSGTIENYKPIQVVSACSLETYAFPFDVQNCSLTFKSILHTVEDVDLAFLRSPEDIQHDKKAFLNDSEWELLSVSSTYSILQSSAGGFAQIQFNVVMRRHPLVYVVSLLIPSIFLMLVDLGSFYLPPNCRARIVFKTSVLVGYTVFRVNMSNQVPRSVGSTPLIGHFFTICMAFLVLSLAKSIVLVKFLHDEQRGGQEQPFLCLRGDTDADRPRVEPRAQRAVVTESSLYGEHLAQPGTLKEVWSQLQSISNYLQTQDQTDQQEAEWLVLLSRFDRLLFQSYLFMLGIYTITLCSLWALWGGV

5‐HT3AT6'SB receptors = biological target: T4, 5‐HT3AT6'SB receptors (Homo sapiens, UniProt O95264+P46098, T279S); assay: two‐electrode voltage clamp, 5‐HT3AT6'SB mutant receptors in Xenopus oocytes; conditions: maximal current amplitude for the test ligand compared to 5‐HT
T4 sequence (P46098 24-478 T279S): T1 sequence (P46098 24-478) with T256S
T4 sequence (O95264 22-441): T3 sequence (O95264 22-441)

**Q.** For `c1ccc2nc(N3CCNCC3)ccc2c1` [Quipazine], which agonist response (5‐HT3A receptors; 5‐HT3A) is on record?
**A.** too small to accurately determine functional parameters

**Q.** And the “long‐lived inhibition of subsequent agonist responses” value (5‐HT3A receptors; wild type 5‐HT3A and 5‐HT3AB receptors)?
**A.** > 20 min

**Q.** And the Rmax (5‐HT3AT6'S receptors)?
**A.** 0.9

**Q.** And the agonist response (5‐HT3AB receptors)?
**A.** too small to accurately determine functional parameters

**Q.** And the Rmax (5‐HT3AT6'SB receptors)?
**A.** 1.2
